In patent publication US8378104B2 (OSI Pharmaceuticals, LLC, priority 2010, dated 2013):
Counter-ions that a name gives are not always drawn.

Experiments:
TAK1-TAB1 fusion protein = molecular target: T1, TAK1-TAB1 fusion protein (Homo sapiens, UniProt O43318); assay: TAK1 biochemical assay (AlphaScreen, GST-MAP2K7 substrate); details: TAK1-TAB1 fusion protein, GST-MAP2K7 substrate; read-out: mean TAK1 IC50 (Col. A)
T1 construct: purchased Carna
T1 sequence (O43318 with tags, fused parts or gaps limits assumed): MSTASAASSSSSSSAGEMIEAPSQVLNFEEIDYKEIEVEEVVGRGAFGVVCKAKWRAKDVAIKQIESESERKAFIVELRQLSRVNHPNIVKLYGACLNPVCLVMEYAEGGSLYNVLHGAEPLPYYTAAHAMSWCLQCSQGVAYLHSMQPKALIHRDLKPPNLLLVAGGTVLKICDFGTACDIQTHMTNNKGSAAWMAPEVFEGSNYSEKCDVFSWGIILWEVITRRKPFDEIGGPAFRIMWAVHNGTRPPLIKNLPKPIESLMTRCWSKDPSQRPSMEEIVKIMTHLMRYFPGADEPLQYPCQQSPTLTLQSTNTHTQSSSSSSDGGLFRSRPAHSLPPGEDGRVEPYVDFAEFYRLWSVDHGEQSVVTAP

pJNK in HCT-116 cells = assay: Phospho-JNK (Thr183/Tyr185) Meso Scale ELISA assay, TNFα-stimulated HCT-116 cells; format: cell-based; details: Homo sapiens, read-out: mean HCT-116 pJNK ELISA IC50 (Col. B)
Description: Detailed below are ELISA assays for pJNK and p38, and a TAK1 biochemical assay. […] In Table 1, Col.
Phospho-JNK (Thr183/Tyr185) Meso Scale ELISA Assay
• 1. Plate HCT-116 cells at 25,000 per well in 100 uL in 96 well clear dishes in normal growth medium. Day 2: • 1. Aspirate medium and replace with 90 μl reduced serum growth medium (1% FCS), incubate for 2 hours at 37° C. • 2. Make drugs at 10× in reduced serum medium and add 10 uL per well. • 3. Incubate at 37° C. for 4 hrs. • 4. Bring capture plates to room temperature. • 5. Block with 150 μl Blocking Solution (provided with kit) (600 mg Blocker A into 20 mL 1× Wash Buffer per plate) at room temperature with shaking. • 6. Wash plates 4× with 200 μl 1× wash buffer (10× provided with kit) before transferring lysates. • 7. Dilute TNFα to […] in reduced serum medium (this makes a 10× working stock). • 8. Add 10 μl TNFα to all wells except negative control wells, final concentration is 10 ng/mL. • 9. Incubate at 37° C. for 10 minutes. • 10. Remove medium by flicking into sink • 11. Wash cells with 100 uL ice cold PBS. • 12. Remove PBS by flicking into sink and patting on paper towels. • 13. Lyse cells in 50 μl ice cold 1× Complete Lysis Buffer plus Phosphatase and Protease inhibitors (all provided with kit) (10 mL Tris Lysis Buffer+200 μl Protease inhibitor solution+100 μl Phosphatase inhibitor I+100 μl Phosphatase inhibitor II). • 14. Incubate with shaking at 4° C. for 30 minutes. • 15. Transfer 45 μl to capture plate, cover with adhesive cover, and incubate at 4° C. over night with shaking. • Day 3: • 1. Wash plates 4× with 200 μl 1× wash buffer (10× provided with kit). • 2. […] Incubate at room temperature with shaking for 1 hour. • 4. Wash 4× with 200 μl 1× Wash Buffer. • 5. […] Read on Sector Imager. Phospho-p38 Meso Scale ELISA Assay Day 1: • 1. Plate HCT-116 cells at 25,000 per well in 100 uL in 96 well clear dishes in normal growth medium. zday 2: • 1. Aspirate medium and replace with 90 μl reduced serum growth medium (1% FCS), incubate for 2 hours at 37° C. • 2. Make drugs at 10× in reduced serum medium and add 10 uL per well. • 3. Incubate at 37° C. for 4 hrs. • 4. Bring capture plates to room temperature. • 5. Block with 150 μl Blocking Solution (provided with kit) (600 mg Blocker A into 20 mL 1× Wash Buffer per plate) at room temperature with shaking. • 6. Wash plates 4× with 200 μl 1× wash buffer (10× provided with kit) before transferring lysates. • 7. Dilute TNFα to […] in reduced serum medium (this makes a 10× working stock). • 8. Add 10 μl TNFα to all wells except negative control wells, final concentration is 10 ng/mL. • 9. Incubate at 37° C. for 10 minutes. • 10. Remove medium by flicking into sink • 11. Wash cells with 100 uL ice cold PBS. • 12. Remove PBS by flicking into sink and patting on paper towels. • 13. Lyse cells in 50 μl ice cold 1× Complete Lysis Buffer plus phosphatase and protease inhibitors (all provided with kit) (10 mL Tris Lysis Buffer+200 μl Protease inhibitor solution+100 μl Phosphatase inhibitor I+100 μl Phosphatase inhibitor II). • 14. Incubate with shaking at 4° C. for 30 minutes. • 15. Dilute lysates before transferring to capture plate with 100 μl Complete p38 Lysate • Dilution Buffer (provided with kit) (10 mL of Diluent 20±200 μl Protease inhibitor solution+100 μl Phosphatase inhibitor I+100 μl Phosphatase inhibitor II). • 16. Transfer 50 μl of diluted lysates to capture plate, cover with adhesive cover, and incubate at 4° C. over night with shaking. Day 3: • 1. Wash plates 4× with 200 μl 1× wash buffer (10× provided with kit). • 2. […] Incubate at room temperature with shaking for 1 hour. • 4. Wash 4× with 200 μl 1× Wash Buffer. • 5. […] Read on Sector Imager. TAK1 Biochemical Assay

| Structure (SMILES) | IC50 (TAK1-TAB1 fusion protein) | IC50 (pJNK in HCT-116 cells) |
| --- | --- | --- |
| Nc1ncc(-c2cnn(C3CCC(O)C3)c2)c2cc(-c3csc4cnccc34)oc12 (stereo not drawn) [Example 306, 3-[4-(7-amino-2-thieno[2,3-c]pyridin-3-yl-furo[2,3-c]pyridin-4-yl)-pyrazol-1-yl]-cyclopentanol] | < 100 nM | 100 to 1000 nM |
| CN1[C@@H]2CC[C@H]1C[C@H](n1cc(-c3cnc(N)c4oc(-c5csc6cnccc56)cc34)cn1)C2 [Example 328, 4-{1-[(3-exo)-8-methyl-8-azabicyclo[3.2.1]oct-3-yl]-1H-pyrazol-4-yl}-2-(thieno[2,3-c]pyridin-3-yl)furo[2,3-c]pyridin-7-amine] | < 100 nM | 100 to 1000 nM |
| CC(=O)N1CCC(n2cc(-c3cnc(N)c4oc(-c5csc6c(F)nccc56)cc34)cn2)CC1 [Example 256, 1-(4-{4-[7-amino-2-(7-fluorothieno[2,3-c]pyridin-3-yl)furo[2,3-c]pyridin-4-yl]-1H-pyrazol-1-yl}piperidin-1-yl)ethanone trifluoroacetic acid salt] | 100 to 1000 nM | 100 to 1000 nM |
| CC(C)(C)OC(=O)N1[C@@H]2CC[C@H]1C[C@H](n1cc(-c3cnc(N)c4oc(-c5cccc6cnsc56)cc34)cn1)C2 [Example 301, tert-butyl (3-exo)-3-{4-[7-amino-2-(1,2-benzisothiazol-7-yl)furo[2,3-c]pyridin-4-yl]-1H-pyrazol-1-yl}-8-azabicyclo[3.2.1]octane-8-carboxylate] | 100 to 1000 nM | 100 to 1000 nM |
| CC(=O)N1[C@@H]2CC[C@H]1C[C@H](n1cc(-c3cnc(N)c4oc(-c5cccc6cnsc56)cc34)cn1)C2 [Example 327, 1-[(3-exo)-3-{4-[7-amino-2-(1,2-benzisothiazol-7-yl)furo[2,3-c]pyridin-4-yl]-1H-pyrazol-1-yl}-8-azabicyclo[3.2.1]oct-8-yl]ethanone] | < 100 nM | < 100 nM |
| CC(C)N1[C@@H]2CC[C@H]1C[C@H](n1cc(-c3cnc(N)c4oc(-c5csc6cnccc56)cc34)cn1)C2 [Example 329, 4-{1-[(3-exo)-8-(propan-2-yl)-8-azabicyclo[3.2.1]oct-3-yl]-1H-pyrazol-4-yl}-2-(thieno[2,3-c]pyridin-3-yl)furo[2,3-c]pyridin-7-amine] | < 100 nM | 100 to 1000 nM |
| Nc1ncc(-c2cnn([C@H]3CC[C@H](O)CC3)c2)c2cc(-c3csc4cnncc34)oc12 [Example 268, trans-4-{4-[7-amino-2-(thieno[2,3-d]pyridazin-3-yl)furo[2,3-c]-pyridin-4-yl]-1H-pyrazol-1-yl}cyclohexanol bistrifluoroacetate] | < 100 nM | < 100 nM |
| CC(C)(O)C#Cc1sc2cnccc2c1-c1cc2c(-c3cnn([C@H]4CC[C@H](O)CC4)c3)cnc(N)c2o1 [Example 271, trans-4-(4-{7-amino-2-[2-(3-hydroxy-3-methylbut-1-yn-1-yl)thieno[2,3-c]pyridin-3-yl]furo[2,3-c]pyridin-4-yl}-1H-pyrazol-1-yl)cyclohexanol trifluoroacetate] | 100 to 1000 nM | 1000 to 10000 nM |
| CC(=O)N1CCC(n2cc(-c3cnc(N)c4oc(-c5cccc6ncsc56)cc34)cn2)CC1 [Example 225, 1-(4-{4-[7-amino-2-(1,3-benzothiazol-7-yl)furo[2,3-c]pyridin-4-yl]-1H-pyrazol-1-yl}piperidin-1-yl)ethanone diformate salt] | < 100 nM | < 100 nM |
| Nc1ncc(-c2cnn([C@H]3CC[C@H](O)CC3)c2)c2c(Cl)c(-c3csc4cnccc34)oc12 [Example 287, trans-4-{4-[7-amino-3-chloro-2-(thieno[2,3-c]pyridin-3-yl)furo[2,3-c]pyridin-4-yl]-1H-pyrazol-1-yl}cyclohexanol] | 100 to 1000 nM | < 100 nM |

The remaining lines, values ahead:

| IC50 (TAK1-TAB1 fusion protein) | IC50 (pJNK in HCT-116 cells) | Structure (SMILES) |
| --- | --- | --- |
| < 100 nM | < 100 nM | COc1nn([C@H]2CC[C@H](O)CC2)cc1-c1cnc(N)c2oc(-c3cccc4nnsc34)cc12 [Example 347, trans-4-{4-[7-amino-2-(1,2,3-benzothiadiazol-7-yl)furo[2,3-c]pyridin-4-yl]-3-methoxy-1H-pyrazol-1-yl}cyclohexanol diformate salt] |
| < 100 nM | < 100 nM | COCc1nc2cccc(-c3cc4c(-c5cnn(C6CCN(C(C)=O)CC6)c5)cnc(N)c4o3)c2s1 [Example 348, 1-[4-(4-{7-amino-2-[2-(methoxymethyl)-1,3-benzothiazol-7-yl]furo[2,3-c]pyridin-4-yl}-1H-pyrazol-1-yl)piperidin-1-yl]ethanone trifluoroacetate] |
| 100 to 1000 nM | 100 to 1000 nM | CC(C)CNC(=O)N1CCC(n2cc(-c3cnc(N)c4oc(-c5cccc6cnsc56)cc34)cn2)CC1 [Example 338, 4-[4-(7-amino-2-benzo[d]isothiazol-7-yl-furo[2,3-c]pyridin-4-yl)-pyrazol-1-yl]-piperidine-1-carboxylic acid isobutyl-amide] |
| 100 to 1000 nM | 100 to 1000 nM | Nc1ncc(-c2cnn(C3CCN(C(=O)CCc4ccccc4)CC3)c2)c2cc(-c3csc4cnccc34)oc12 [Example 331, 1-{4-[4-(7-amino-2-thieno[2,3-c]pyridin-3-yl-furo[2,3-c]pyridin-4-yl)-pyrazol-1-yl]-piperidin-1-yl}-3-phenyl-propan-1-one] |
| < 100 nM | < 100 nM | Nc1ncc(-c2cnn([C@@H]3CCC[C@H](O)C3)c2)c2cc(-c3csc4cnccc34)oc12 (relative stereo) [Example 310, cis-3-[4-(7-amino-2-thieno[2,3-c]pyridin-3-yl-furo[2,3-c]pyridin-4-yl)-pyrazol-1-yl]-cyclohexanol] |
| 100 to 1000 nM | < 100 nM | Nc1ncc(-c2cnn(C3CCN(C(=O)NCC4CCCCC4)CC3)c2)c2cc(-c3cccc4cnsc34)oc12 [Example 341, 4-[4-(7-amino-2-benzo[d]isothiazol-7-yl-furo[2,3-c]pyridin-4-yl)-pyrazol-1-yl]-piperidine-1-carboxylic acid cyclohexylmethyl-amide] |
| 100 to 1000 nM | < 100 nM | N#Cc1cc(-c2cc3c(-c4cnn([C@H]5CC[C@H](O)CC5)c4)cnc(N)c3o2)c2snnc2c1 [Example 370, 7-{7-amino-4-[1-(trans-4-hydroxycyclohexyl)-1H-pyrazol-4-yl]furo[2,3-c]pyridin-2-yl}-1,2,3-benzothiadiazole-5-carbonitrile] |
| 100 to 1000 nM | 100 to 1000 nM | Nc1ncc(-c2cnn(C3CCN(C(=O)Nc4cccc5c4CCCC5)CC3)c2)c2cc(-c3cccc4cnsc34)oc12 [Example 340, 4-[4-(7-amino-2-benzo[d]isothiazol-7-yl-furo[2,3-c]pyridin-4-yl)-pyrazol-1-yl]-piperidine-1-carboxylic acid (5,6,7,8-tetrahydro-naphthalen-1-yl)-amide] |
